SMILES strings stand for the structures.

This assay addresses T1, IC-GPCR2 (Homo sapiens, UniProt Q8TDV5).
T1 construct: expressed in transfected cells
T1 sequence (Q8TDV5 1-335 S309L): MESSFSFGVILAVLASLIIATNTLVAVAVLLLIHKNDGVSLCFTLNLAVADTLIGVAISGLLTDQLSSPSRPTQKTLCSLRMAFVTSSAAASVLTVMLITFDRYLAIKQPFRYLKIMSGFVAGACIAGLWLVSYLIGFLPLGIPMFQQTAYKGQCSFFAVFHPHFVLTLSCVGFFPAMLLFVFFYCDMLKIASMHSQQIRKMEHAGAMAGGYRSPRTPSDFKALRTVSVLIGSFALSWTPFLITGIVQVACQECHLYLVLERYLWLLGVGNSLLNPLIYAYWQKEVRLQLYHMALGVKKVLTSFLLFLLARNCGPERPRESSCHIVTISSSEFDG
Briefly: Stimulation of cAMP in CHO cell line stably expressing IC-GPCR2 (HTRF cAMP dynamic kit). Type of assay: cell-based. The settings on record: 3 μM compound, relative to maximal activity of 5-Ethyl-2-{4-[4-(4-tetrazol-1-yl-phenoxymethyl)-thiazol-2-yl]-piperidin-1-yl}-pyrimidine (=100%), IC-GPCR2 stably expressing CHO cells, 30 minutes. In short, it runs like this:
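CHO cells stably expressing IC-GPCR2, with parental CHO as counter-screen, were exposed to compound (0.00003–10 μM) for 30 min in Ham's F12. Intracellular cAMP read by HTRF competitive immunoassay (665/620 nm ratio). Activity at 3 μM expressed as % of maximal signal from a reference agonist.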
For orientation: In TR-FRET formats the signal depends on donor and acceptor labels being close together.

In the case of `FC(F)(F)c1cnc(N2C3CCC2CC(n2ncc(COc4ccc(-n5cnnn5)nc4)n2)C3)nc1` (stereo not drawn) [Example 71, exo-3-(4-((6-(1H-Tetrazol-1-yl)pyridin-3-yloxy)methyl)-2H-1,2,3-triazol-2-yl)-8-(5-(trifluoromethyl)pyrimidin-2-yl)-8-azabicyclo[3.2.1]octane], the “% activity at 3 μM” value stood at 70.78%. With `CC(C)(C)OC(=O)N1C2CCC1CC(n1ncc(COc3ccc(-n4cnnn4)nc3)n1)C2` (stereo not drawn) [Example 72, endo-tert-Butyl 3-(4-((6-(1H-tetrazol-1-yl)pyridin-3-yloxy)methyl)-2H-1,2,3-triazol-2-yl)-8-azabicyclo[3.2.1]octane-8-carboxylate], the “% activity at 3 μM” value (3 µM) came out at 60.55%. As to `CC(C)(C)OC(=O)N1C2CCC1CC(n1ncc(COc3ccc(-n4cnnn4)nc3)n1)C2` (stereo not drawn) [Example 73, exo-tert-Butyl 3-(4-((6-(1H-tetrazol-1-yl)pyridin-3-yloxy)methyl)-2H-1,2,3-triazol-2-yl)-8-azabicyclo[3.2.1]octane-8-carboxylate], where the note is “3 µM”, the “% activity at 3 μM” value stood at 84.07%. Take `Fc1cnc(N2C3CCC2CC(n2ncc(COc4ccc(-n5cnnn5)nc4)n2)C3)nc1` (stereo not drawn) [Example 74, endo-3-(4-((6-(1H-tetrazol-1-yl)pyridin-3-yloxy)methyl)-2H-1,2,3-triazol-2-yl)-8-(5-fluoropyrimidin-2-yl)-8-azabicyclo[3.2.1]octane]: the “% activity at 3 μM” value (3 µM) is given as 61.88%.

Consider `Fc1cnc(N2C3CCC2CC(n2ncc(COc4ccc(-n5cnnn5)nc4)n2)C3)nc1` (stereo not drawn) [Example 75, exo-3-(4-((6-(1H-Tetrazol-1-yl)pyridin-3-yloxy)methyl)-2H-1,2,3-triazol-2-yl)-8-(5-fluoropyrimidin-2-yl)-8-azabicyclo[3.2.1]octane], for which, for the setting “3 µM”, the “% activity at 3 μM” value stood at 47.94%. `C=CCOC(=O)N1CCC(n2ncc(COc3ccc(-n4cnnn4)cc3F)n2)CC1` [Example 76, Allyl 4-(4-((2-fluoro-4-(1H-tetrazol-1-yl)phenoxy)methyl)-2H-1,2,3-triazol-2-yl)piperidine-1-carboxylate]: the “% activity at 3 μM” value was 56.39%.

For `C=CCOC(=O)N1CCC(n2ncc(COc3ccc(-n4cnnn4)nc3)n2)CC1` [Example 77, Allyl 4-(4-((6-(1H-tetrazol-1-yl)pyridin-3-yloxy)methyl)-2H-1,2,3-triazol-2-yl)piperidine-1-carboxylate], the “% activity at 3 μM” value is given as 69.86%. As for `CCCCCc1cnc(N2CCC(n3ncc(COc4ccc(-n5cnnn5)nc4)n3)CC2)nc1` [Example 78, 2-(4-(4-((6-(1H-tetrazol-1-yl)pyridin-3-yloxy)methyl)-2H-1,2,3-triazol-2-yl)piperidin-1-yl)-5-pentylpyrimidine], the “% activity at 3 μM” value is 57.13%. Turning to `COc1ccc(-c2cnc(N3CCC(n4ncc(COc5ccc(-n6cnnn6)nc5)n4)CC3)nc2)cc1` [Example 80, 2-(4-(4-((6-(1H-tetrazol-1-yl)pyridin-3-yloxy)methyl)-2H-1,2,3-triazol-2-yl)piperidin-1-yl)-5-(4-methoxyphenyl)pyrimidine], the “% activity at 3 μM” value was 77.53%. Still for that read-out and setting: the same measure for `CCOC(=O)c1cnc(N2CCC(n3ncc(COc4ccc(-n5cnnn5)nc4)n3)CC2)s1` [Example 81, Ethyl 2-(4-(4-((6-(1H-tetrazol-1-yl)pyridin-3-yloxy)methyl)-2H-1,2,3-triazol-2-yl)piperidin-1-yl)thiazole-5-carboxylate]: 32.98%; for `FC(F)(F)c1ccc(N2CCC(n3ncc(COc4ccc(-n5cnnn5)nc4)n3)CC2)nc1` [Example 82, 2-(4-(4-((6-(1H-tetrazol-1-yl)pyridin-3-yloxy)methyl)-2H-1,2,3-triazol-2-yl)piperidin-1-yl)-5-(trifluoromethyl)pyridine]: 64.90%. Turning to `CC1CN(C(=O)OC(C)(C)C)CCC1n1ncc(COc2ccc(-n3cnnn3)nc2)n1` (stereo not shown) [Example 83, tert-Butyl 4-(4-((6-(1H-tetrazol-1-yl)pyridin-3-yloxy)methyl)-2H-1,2,3-triazol-2-yl)-3-methylpiperidine-1-carboxylate], the “% activity at 3 μM” value is recorded as 63.14%. `CC1CN(c2ncc(C(F)(F)F)cn2)CCC1n1ncc(COc2ccc(-n3cnnn3)nc2)n1` (stereo not shown) [Example 84, 2-(4-(4-((6-(1H-Tetrazol-1-yl)pyridin-3-yloxy)methyl)-2H-1,2,3-triazol-2-yl)-3-methylpiperidin-1-yl)-5-(trifluoromethyl)pyrimidine]: the “% activity at 3 μM” value is on record as 78.05%.

Consider `CCc1cnc(N2CCC(n3ncc(COc4ccc(-n5cnnn5)nc4)n3)C(C)C2)nc1` (stereo not shown) [Example 85, 2-(4-(4-((6-(1H-Tetrazol-1-yl)pyridin-3-yloxy)methyl)-2H-1,2,3-triazol-2-yl)-3-methylpiperidin-1-yl)-5-ethylpyrimidine], for which the “% activity at 3 μM” value is on record as 76.12%. Regarding `Cc1cnc(N2CCC(n3ncc(COc4ccc(-n5cnnn5)nc4)n3)C(C)C2)nc1` (stereo not shown) [Example 86, 2-(4-(4-((6-(1H-Tetrazol-1-yl)pyridin-3-yloxy)methyl)-2H-1,2,3-triazol-2-yl)-3-methylpiperidin-1-yl)-5-methylpyrimidine], the “% activity at 3 μM” value came to 71.39%. For `CC1CN(c2ncc(Cl)cn2)CCC1n1ncc(COc2ccc(-n3cnnn3)nc2)n1` (stereo not shown) [Example 87, 2-(4-(4-((6-(1H-Tetrazol-1-yl)pyridin-3-yloxy)methyl)-2H-1,2,3-triazol-2-yl)-3-methylpiperidin-1-yl)-5-chloropyrimidine], the “% activity at 3 μM” value is on record as 75.63%.

As for `Clc1cnc(N2CCC(n3ncc(COc4ccc(-n5cnnn5)cc4)n3)CC2)nc1` [Example 88, 2-(4-(4-((4-(1H-Tetrazol-1-yl)phenoxy)methyl)-2H-1,2,3-triazol-2-yl)piperidin-1-yl)-5-chloropyrimidine], the “% activity at 3 μM” value is 60.96%. Take `Cc1cc(-n2cnnn2)ccc1OCc1cnn(C2CCN(c3ncc(Cl)cn3)CC2)n1` [Example 89, 5-chloro-2-(4-(4-((2-Methyl-4-(1H-tetrazol-1-yl)phenoxy)methyl)-2H-1,2,3-triazol-2-yl)piperidin-1-yl)pyrimidine]: the “% activity at 3 μM” value is reported as 48.60%. For the compound `Cc1sc(OCc2cnn(C3CCN(c4ncc(Cl)cn4)CC3)n2)nc1-c1cccnc1` [Example 90, 2-((2-(1-(5-Chloropyrimidin-2-yl)piperidin-4-yl)-2H-1,2,3-triazol-4-yl)methoxy)-5-methyl-4-(pyridin-3-yl)thiazole], the “% activity at 3 μM” value is 13.60%. `Cc1sc(OCc2cnn(C3CCN(c4ncc(Cl)cn4)CC3)n2)nc1-c1ccncc1` [Example 91, 2-((2-(1-(5-Chloropyrimidin-2-yl)piperidin-4-yl)-2H-1,2,3-triazol-4-yl)methoxy)-5-methyl-4-(pyridin-4-yl)thiazole]: the “% activity at 3 μM” value was determined as 5.82%. On to `Clc1cnc(N2CCC(n3ncc(COc4ccc(-n5ccnn5)cc4)n3)CC2)nc1` [Example 92, 2-(4-(4-((4-(1H-1,2,3-Triazol-1-yl)phenoxy)methyl)-2H-1,2,3-triazol-2-yl)piperidin-1-yl)-5-chloropyrimidine], for which the “% activity at 3 μM” value worked out at 58.28%. Take `Clc1cnc(N2CCC(n3ncc(COc4ccc(-n5cncn5)cc4)n3)CC2)nc1` [Example 93, 2-(4-(4-((4-(1H-1,2,4-Triazol-1-yl)phenoxy)methyl)-2H-1,2,3-triazol-2-yl)piperidin-1-yl)-5-chloropyrimidine]: the “% activity at 3 μM” value was determined as 50.84%.

Regarding `Clc1cnc(N2CCC(n3ncc(COc4ccc(-n5ccnc5)cc4)n3)CC2)nc1` [Example 94, 2-(4-(4-((4-(1H-Imidazol-1-yl)phenoxy)methyl)-2H-1,2,3-triazol-2-yl)piperidin-1-yl)-5-chloropyrimidine], the “% activity at 3 μM” value was found to be 49.73%.

`CS(=O)(=O)c1ccc(OCc2cnn(C3CCN(c4ncc(Cl)cn4)CC3)n2)cc1` [Example 95, 5-Chloro-2-(4-(4-((4-(Methylsulfonyl)phenoxy)methyl)-2H-1,2,3-triazol-2-yl)piperidin-1-yl)pyrimidine]: the “% activity at 3 μM” value is given as 51.03%. Same read-out and setting: the same measure for `Clc1cnc(N2CCC(n3ncc(COc4ccccc4-c4nnco4)n3)CC2)nc1` [Example 96, 5-Chloro-2-{4-[4-(2-[1,3,4]oxadiazol-2-yl-phenoxymethyl)-[1,2,3]triazol-2-yl]-piperidin-1-yl}-pyrimidine]: 28.90%; for `Clc1cnc(N2CCC(n3ncc(COc4ccc(Cl)nc4)n3)CC2)nc1` [Example 98, 5-Chloro-2-{4-[4-(6-chloro-pyridin-3-yloxymethyl)-[1,2,3]triazol-2-yl]-piperidin-1-yl}-pyrimidine]: 17.16%. Consider `O=C1CCCN1c1ccc(OCc2cnn(C3CCN(c4ncc(C(F)(F)F)cn4)CC3)n2)cc1` [Example 99, 1-(4-{2-[1-(5-Trifluoromethyl-pyrimidin-2-yl)-piperidin-4-yl]-2H-[1,2,3]triazol-4-ylmethoxy}-phenyl)-pyrrolidin-2-one], for which the “% activity at 3 μM” value was 56.81%. In the case of `FC(F)(F)c1cnc(N2CCC(n3ncc(COCc4ccccc4)n3)CC2)nc1` [Example 100, 2-[4-(4-benzyloxymethyl-[1,2,3]triazol-2-yl)-piperidin-1-yl]-5-trifluoromethyl-pyrimidine], the “% activity at 3 μM” value turned out to be 10.69%.

The values above are taken from patent publication US8846675B2, “N-linked heterocyclic receptor agonists for the treatment of diabetes and metabolic disorders” (Cymabay Therapeutics, Inc., priority 2007, dated 2014).
